Results as given in patent EP0946579B1, “NOVEL ERYTHROMYCIN DERIVATIVES, METHOD FOR PREPARING THEM AND THEIR USE AS MEDICINE” (Aventis Pharma S.A., priority 1996, dated 1998).
Converted amounts (≈) assume the structure as drawn.

Experiments:
Format in all cases: cell-based
[1] = tested on: Staphylococcus aureus 011G025I; experiment: Dilution method in liquid medium (MIC); conditions: incubation 24 h at 37°C, read-out: concentrations minimales inhibitrices (C.M.I.)
Method: (§1) Méthode des dilutions en milieu liquide
(§2) On a préparé une série de tubes dans lesquels on répartit une même quantité de milieu nutritif stérile. On distribue dans chaque tube des quantités croissantes du produit à étudier, puis chaque tube est ensemencé avec une souche bactérienne. Après incubation de vingt-quatre heures à l'étuve à 37°C, l'inhibition de la croissance est appréciée par transillumination de ce qui permet de déterminer les concentrations minimales inhibitrices (C.M.I.) exprimées en microgrammes/cm^3.

[2] = tested on: Staphylococcus aureus 011UC4; experiment: Dilution method in liquid medium (MIC); conditions: incubation 24 h at 37°C, read-out: concentrations minimales inhibitrices (C.M.I.)
Method: as §1, §2

[3] = tested on: Staphylococcus epidermidis 012GO11I; experiment: Dilution method in liquid medium (MIC); conditions: incubation 24 h at 37°C, read-out: concentrations minimales inhibitrices (C.M.I.)
Method: as §1, §2

[4] = tested on: Streptococcus agalactiae groupe B 02B1HT1; experiment: Dilution method in liquid medium (MIC); conditions: incubation 24 h at 37°C, read-out: concentrations minimales inhibitrices (C.M.I.)
Method: as §1, §2

[5] = tested on: Streptococcus agalactiae groupe B 02B1SJ1; experiment: Dilution method in liquid medium (MIC); conditions: incubation 24 h at 37°C, read-out: concentrations minimales inhibitrices (C.M.I.)
Method: as §1, §2

[6] = tested on: Streptococcus faecalis groupe D 02D2UC1; experiment: Dilution method in liquid medium (MIC); conditions: Enterococcus faecalis, incubation 24 h at 37°C, read-out: concentrations minimales inhibitrices (C.M.I.)
Method: as §1, §2

[7] = tested on: Streptococcus faecium groupe D 02D3HT1; experiment: Dilution method in liquid medium (MIC); conditions: Enterococcus faecium, incubation 24 h at 37°C, read-out: concentrations minimales inhibitrices (C.M.I.)
Method: as §1, §2

[8] = tested on: Streptococcus mitis 02mitCB1; experiment: Dilution method in liquid medium (MIC); conditions: incubation 24 h at 37°C, read-out: concentrations minimales inhibitrices (C.M.I.)
Method: as §1, §2

[9] = tested on: Streptococcus mitis 02mitGR16I; experiment: Dilution method in liquid medium (MIC); conditions: incubation 24 h at 37°C, read-out: concentrations minimales inhibitrices (C.M.I.)
Method: as §1, §2

[10] = tested on: Streptococcus pneumoniae 032UC1; experiment: Dilution method in liquid medium (MIC); conditions: incubation 24 h at 37°C, read-out: concentrations minimales inhibitrices (C.M.I.)
Method: as §1, §2

[11] = tested on: Streptococcus pyogenes groupe A 02A1UC1; experiment: Dilution method in liquid medium (MIC); conditions: incubation 24 h at 37°C, read-out: concentrations minimales inhibitrices (C.M.I.)
Method: as §1, §2

[12] = tested on: Streptococcus sp groupe G 02G0GR5; experiment: Dilution method in liquid medium (MIC); conditions: incubation 24 h at 37°C, read-out: concentrations minimales inhibitrices (C.M.I.)
Method: as §1, §2

[13] = tested on: Haemophilus Influenzae 351CA1; experiment: Antibacterial activity on gram-negative strains; conditions: result in words
Method: as §2

[14] = tested on: Haemophilus Influenzae 351CB12; experiment: Antibacterial activity on gram-negative strains; conditions: result in words
Method: as §2

[15] = tested on: Haemophilus Influenzae 351GR6; experiment: Antibacterial activity on gram-negative strains; conditions: result in words
Method: as §2

[16] = tested on: Haemophilus Influenzae 351HT3; experiment: Antibacterial activity on gram-negative strains; conditions: result in words
Method: as §2

Row | MIC [1] [µg/mL] | MIC [2] [µg/mL] | MIC [3] [µg/mL] | MIC [4] [µg/mL] | MIC [5] [µg/mL] | MIC [6] [µg/mL] | MIC [7] [µg/mL] | MIC [8] [µg/mL] | MIC [9] [µg/mL] | MIC [10] [µg/mL] | MIC [11] [µg/mL] | MIC [12] [µg/mL] | Structure (SMILES) | activité sur les souches bactériennes à gram⊖ [13] | activité sur les souches bactériennes à gram⊖ [14] | activité sur les souches bactériennes à gram⊖ [15] | activité sur les souches bactériennes à gram⊖ [16]
1 | 0.15 (≈ 0.201 µM) | 0.04 (≈ 0.0536 µM) | 0.08 (≈ 0.107 µM) | ≤ 0.02 | 0.04 (≈ 0.0536 µM) | ≤ 0.04 | ≤ 0.02 | ≤ 0.02 | ≤ 0.02 | ≤ 0.02 | ≤ 0.02 | ≤ 0.02 | CC[C@H]1OC(=O)[C@H](C)C(=O)[C@H](C)[C@@H](O[C@@H]2O[C@H](C)C[C@H](N(C)C)[C@H]2O)[C@](C)(OC)C[C@@H](C)C(=O)[C@H](C)[C@H]2N(COCCc3ccccc3)C(=O)O[C@]12C [Ex. 3, 11,12-didéoxy-3-de[(2,6-didéoxy-3-C-méthyl-3-O-méthyl-alpha-L-ribo-hexopyranosyl)oxy]-6-O-méthyl-3-oxo-12,11-[oxycarbonyl[[(2-phényléthoxy)méthyl]imino]]-érythromycine] |  |  |  | 
2 | 0.08 (≈ 0.0983 µM) | 0.08 (≈ 0.0983 µM) | 0.08 (≈ 0.0983 µM) | ≤ 0.02 | 0.08 (≈ 0.0983 µM) | ≤ 0.02 | ≤ 0.02 | ≤ 0.02 | ≤ 0.02 | 0.02 (≈ 0.0246 µM) | ≤ 0.02 | ≤ 0.02 | CC[C@H]1OC(=O)[C@H](C)C(=O)[C@H](C)[C@@H](O[C@@H]2O[C@H](C)C[C@H](N(C)C)[C@H]2O)[C@](C)(OC)C[C@@H](C)C(=O)[C@H](C)[C@H]2N(COCCn3cnc(-c4cccnc4)c3)C(=O)O[C@]12C [Ex. 2] |  |  |  | 
3 |  |  |  |  |  |  |  |  |  |  |  |  | CC[C@H]1OC(=O)[C@H](C)C(=O)[C@H](C)[C@@H](O[C@@H]2O[C@H](C)C[C@H](N(C)C)[C@H]2O)[C@](C)(OC)C[C@@H](C)C(=O)[C@H](C)[C@H]2N(COCCOC)C(=O)O[C@]12C [exemple 1, 11,12-didéoxy-3-de[(2,6-didéoxy-3-C-méthyl-3-O-méthyl-alpha-L-ribo-hexopyranosyl)oxy]-6-O-méthyl-3-oxo-12,11-[oxycarbonyl[[(2-méthoxyéthoxy)méthyl]imino]]-érythromycine] | activité intéressante | activité intéressante | activité intéressante | activité intéressante
